Source: patent US12000819B2, “Gas concentration prediction method” (DAIKIN INDUSTRIES, LTD., priority 2018, dated 2024)

Experiment: Concentration of gas dissolved in cell culture liquid or pure water after bubbling, measured by gas chromatography
Assay type: physicochemical
Details: for Correction coefficient α: ratio of average gas concentrations in cell culture liquid and pure water
Method: The gas shown in Table 1 was bubbled at 20 mL/min for 1 minute in 5 mL of a cell culture medium (liquid containing 6.4 g/L of sodium chloride, 4.7 g/L of D-glucose, 3.7 g/L of sodium bicarbonate, L-lysine hydrochloride, 0.84 g/L of L-arginine hydrochloride, 0.58 g/L of L-glutamine, and 0.3 g/L of calcium chloride) or in 5 mL of purified water, at a liquid temperature of 23° C.; and dissolved. Subsequently, the concentration of a gas dissolved in the cell culture liquid or pure water was measured by gas chromatography (Shimadzu Corporation). Each measurement was repeated three times, and the average gas concentration was calculated. The correction coefficient α was then obtained by dividing the average gas concentration in the cell culture liquid by the average gas concentration in the pure water.
At a later date, the same measurements as above were performed, and the correction coefficient was calculated in the same manner.

[1] = Table 1, gas bubbled at 20 mL/min for 1 minute in 5 mL cell culture medium, liquid temperature 23° C., average of three measurements
[2] = Table 1, gas bubbled at 20 mL/min for 1 minute in 5 mL purified water, liquid temperature 23° C., average of three measurements
[3] = Table 2, repeated at a later date
[4] = Table 2, same measurements repeated at a later date, cell culture medium, 23° C.
[5] = Table 2, same measurements repeated at a later date, purified water, 23° C.

Row | SMILES | Gas concentration, Cell culture liquid [1] | Gas concentration, Pure water [2] | Correction coefficient α (Table 1) | Correction coefficient α [3] | Gas concentration, Cell culture liquid [4] | Gas concentration, Pure water [5]
1 | C=C(F)C(F)(F)F [CF3—CF═CH2] | 262 ppm | 331 ppm | 1.26 | 1.25 | 288 ppm | 360 ppm
2 | FCF [CH2F2] | 2972 ppm | 4140 ppm | 1.39 | 1.36 | 2701 ppm | 3673 ppm
3 | FCC(F)(F)F [CH2F—CF3] | 529 ppm | 656 ppm | 1.24 | 1.26 | 599 ppm | 755 ppm
4 | FC(F)Cl [CHF2Cl] | 1785 ppm | 2399 ppm | 1.34 | 1.33 | 1820 ppm | 2421 ppm
